Experimental data: US6333422A, “Thermosensitive cyclotriphosphazene-platinum complex conjugate, its preparation method and anticancer agent containing the same” (Korea Institute of Science and Technology, priority 2000, dated 2001)

Columns and labels:
[1] = test system: mouse leukemia L1210 cell line; test: In vitro cell growth inhibition of mouse leukemia L1210 cells (trypan blue dye exclusion); format: cell-based; details: viable cell number after 24, 48 and 72 hours, read-out: ED50 (concentration exhibiting 50% of cell growth inhibition)
Procedure: 1. Determination of in vitro activity
(§1) (2) Cancer cell line: mouse leukemia L1210 cell line
After adding the samples each serially diluted by logarithmic dose to the cells, cells were cultured in an incubator at 37° C. and under 5% CO2 atmosphere.
The viable cell number was determined after 24, 48 and 72 hours by using trypan blue dye exclusion test.

[2] = test system: mouse leukemia L1210 cell line; test: In vivo (i.p.) activity: survival of BDF1 mice implanted i.p. with leukemia L1210 cells
Procedure: 2. Determination of in vivo (i.p.) activity
(1) Samples: Example 2, Example 6, Example 7 and Example 11
as §1
(3) Experimental method: The leukemia L1210 cells(1×10^5 cells/0.1 ml) obtained from DBA/2 donor mice were injected intraperitoneally to the BDF1 mice (6-8 weeks old, 8 mice per group). The samples were either dissolved in PBS solution or suspended in 0.5% Tween 80 depending on their solubility. These sample solutions were administered via intraperitoneal injection once a day for 5 consecutive days or at day 1, 5, and 9 after the cancer cell implantation at variable dosages. The survival rate was determined by observing the mice each day. By comparing with the average survival time of the control group (where no chemical treatment was performed), the percent average increase in the survival time(T/C, %) was calculated to determine the anticancer activity.

[3] = M. J. Cleare, Biochimie 60, 835 (1978); cited from earlier work
[4] = Lower critical solution temperature (LCST, cloud point) by UV/VIS spectrophotometer; format: physicochemical
Source text: Thermosensitive polymers in the present invention refer to the polymers that can be solubilized in water at low temperatures but precipitates above a certain critical temperature due to the rapid decrease of their water-solubility. When such a phase transition is reversible, the phase transition temperature is called a lower critical solution temperature(LCST) or a cloud point. Below LCST, the hydrogen bonding between the polymer-water molecules is stronger than the hydrophobic interaction between the polymer-polymer molecules. As the temperature increases, however, the hydrogen bonding between the polymer-water molecules weakens whereas the hydrophobic interaction between the polymer-polymer molecules increases resulting in the precipitation of polymers in aqueous solution.
Elemental analysis of carbon, hydrogen, nitrogen in the compounds of the present invention was performed in the Special Analysis Center at KIST by using carbon, hydrogen and nitrogen analyzer (Perkin Elmer), and phosphorous and platinum analysis was performed using Polyscan 61E ICP. Hydrogen and phosphorous nuclear magnetic resonance spectra were obtained using Varian to Gemini-300, and LCST was measured by using Perkin-Elmer Lamda 18 UV/VIS spectrophotometer.

Compound | IC50 [1] [nM] | Lower critical solution temperatures [4] | further results
N.N.O=C([O-])C1(C(=O)[O-])CCC1.[Pt+2] [Carboplatin, reference compound] | 5900 | – | T/C (survival time vs control) ([2]; dose 40 mgkg^-1): 168.0%; LD50 [3]: 180 mg/kg
N.N.[Cl][Pt][Cl] [Cisplatin, reference compound] | 700 | – | T/C (survival time vs control) ([2]; dose 4 mgkg^-1): 163.0%
{NP[(OCH2 CH2)2 OC2 H5 ][L-Asp.Pt(dach)]}3 [Example 7] | 400 | 42.0 °C | T/C (survival time vs control) ([2]; dose 40 mgkg^-1): 200.8%; T/C (survival time vs control) ([2]; dose 60 mgkg^-1): 226.7%; T/C (survival time vs control) ([2]; dose 80 mgkg^-1): > 271.7%
{NP[(OCH2 CH2)2 OC2 H5 ][L-Asp.Pt(dmach)]}3 [Example 8] | – | 35.0 °C | –
{NP[(OCH2 CH2)2 OC2 H5 ][L-Asp.Pt(dmpda)]}3 [Example 6] | – | 46.5 °C | T/C (survival time vs control) ([2]; dose 30 mgkg^-1): 146.1%; T/C (survival time vs control) ([2]; dose 60 mgkg^-1): 162.0%
{NP[(OCH2 CH2)2 OC2 H5 ][L-Mal.Pt(dach)]}3 [Example 5] | – | 39.0 °C | –
{NP[(OCH2 CH2)2 OC3 H7 ][L-Asp.Pt(dach)]}3 [Example 9] | – | 22.0 °C | –
{NP[(OCH2 CH2)2 OC4 H9 ][L-Asp.Pt(dach)]}3 [Example 10] | – | 12.0 °C | –
{NP[(OCH2 CH2)2 OCH3 ][L-Asp.Pt(dach)]}3 [Example 2] | 400 | 92.0 °C | T/C (survival time vs control) ([2]; dose 30 mgkg^-1): 217.3%; T/C (survival time vs control) ([2]; dose 60 mgkg^-1): > 293.8%; T/C (survival time vs control) ([2]; dose 90 mgkg^-1): > 511.0%
{NP[(OCH2 CH2)2 OCH3 ][L-Asp.Pt(dmach)]}3 [Example 3] | – | 74.5 °C | –
{NP[(OCH2 CH2)2 OCH3 ][L-Asp.Pt(dmpda]}3 [Example 1] | – | 98.0 °C | –
{NP[(OCH2 CH2)2 OCH3 ][L-Glu.Pt(dach)]}3 [Example 4] | – | 82.0 °C | –
{NP[(OCH2 CH2)7 OCH3 ][L-Asp.Pt(dach)]}3 [Example 11] | 200 | 84.0 °C | T/C (survival time vs control) ([2]; dose 30 mgkg^-1): 197.0%; T/C (survival time vs control) ([2]; dose 60 mgkg^-1): 229.2%; T/C (survival time vs control) ([2]; dose 90 mgkg^-1): 204.2%
{NP[(OCH2 CH2)12 OCH3 ][L-Asp.Pt(dach)]}3 [Example 12] | – | above 100 °C | –
